Experimental data taken from the supplement of paper PMC13380429.

Columns and labels:
[1] = test system: A549-ACE2 infected with SARS-CoV-2; test: cell count relative to DMSO; higher = less toxic; settings: 24 h
Caco-2 [2] = test: cell viability relative to DMSO; higher = less toxic; settings: 72 h
Calu-3 [3] = test: as above; settings: 72 h
HepG2 [4] = test: as above; settings: 72 h
U2OS [5] = test: as above; settings: 72 h
Vero E6 [6] = test: as above; settings: 72 h
[7] = test system: A549-ACE2 infected with SARS-CoV-2; test: SARS-CoV-2 infection rate relative to DMSO; higher = more infection; settings: 24 h
A549-ACE2 [8] = test: drug-induced phospholipidosis relative to tamoxifen; higher = more phospholipidosis
[9] = test system: A549-ACE2 infected with SARS-CoV-2; test: morphology score (similarity to uninfected cells); higher = more like uninfected cells; settings: 24 h
Calu-3 [10] = test: relative viability EC50 (midpoint between 100% and the lowest measured viability); higher = less toxic; settings: 72 h
U2OS [11] = test: as above; settings: 72 h
Caco-2 [12] = test: drug sensitivity score (DSS) for viability; higher = more toxic; extreme values may be limits of the assay; settings: 72 h
Calu-3 [13] = test: as above; settings: 72 h
HepG2 [14] = test: as above; settings: 72 h
U2OS [15] = test: as above; settings: 72 h
Vero E6 [16] = test: as above; settings: 72 h
Caco-2 [17] = test: relative viability EC50 (midpoint between 100% and the lowest measured viability); higher = less toxic; settings: 72 h
HepG2 [18] = test: as above; settings: 72 h
A549-ACE2 [19] = test: phospholipidosis EC50; higher = less potent phospholipidosis inducer
Vero E6 [20] = test: relative viability EC50 (midpoint between 100% and the lowest measured viability); higher = less toxic; settings: 72 h

C=C1CC[C@@H]2[C@](C)(CO)[C@H](O)CC[C@@]2(C)[C@@H]1C/C=C1/C(=O)OC[C@H]1O [andrographolide]
Settings	SARS-CoV-2 infection rate, [7] [%]	cell count, [1] [%]	cell viability, Caco-2 [2] [%]	cell viability, Calu-3 [3] [%]	cell viability, HepG2 [4] [%]	cell viability, U2OS [5] [%]	cell viability, Vero E6 [6] [%]	morphology score, [9]
1 nM	–	–	99.1	90.5	102	103	100	–
10 nM	–	–	104	94.3	99.2	95.7	104	–
0.1 µM	103	101	–	–	–	–	–	-0.02
100 nM	–	–	101	105	109	102	98	–
0.3 µM	110	101	–	–	–	–	–	-0.22
1 µM	111	96	–	–	–	–	–	-0.15
1000 nM	–	–	94.3	106	102	96.2	112	–
3 µM	102	102	–	–	–	–	–	-0.17
10000 nM	–	–	66	112	66.5	22.9	73.8	–

drug-induced phospholipidosis [%], A549-ACE2 [8]
Settings	0.3 µM	0.833333 µM	3.33333 µM	6.66667 µM	10 µM	30 µM
24 h	4.15	-1.47	2.19	13.3	16	25
48 h	3.38	2.04	3.48	15.8	19.9	–
72 h	0.729	-0.638	-0.912	5.37	8.38	–

Settings	drug sensitivity score	relative viability EC50 [µM]
Caco-2 [12]	2.5	–
Calu-3 [10]	–	> 10
Calu-3 [13]	0	–
HepG2 [14]	1.4	–
U2OS [11]	–	2.78
U2OS [15]	4.8	–
Vero E6 [16]	0.7	–

Nc1nc(O)c2[nH]nnc2n1 [azaguanine-8]
Settings	SARS-CoV-2 infection rate, [7] [%]	cell count, [1] [%]	cell viability, Caco-2 [2] [%]	cell viability, Calu-3 [3] [%]	cell viability, HepG2 [4] [%]	cell viability, U2OS [5] [%]	cell viability, Vero E6 [6] [%]	morphology score, [9]
1 nM	–	–	104	94.4	102	102	104	–
10 nM	–	–	105	94	100	95.4	103	–
0.1 µM	106	102	–	–	–	–	–	0.12
100 nM	–	–	93.5	89.5	100	102	105	–
0.3 µM	91	104	–	–	–	–	–	0.27
1 µM	96	102	–	–	–	–	–	0.08
1000 nM	–	–	91.9	89.5	106	97.6	103	–
3 µM	94	102	–	–	–	–	–	0.33
10000 nM	–	–	91.1	81.2	29.6	89.2	52	–

drug-induced phospholipidosis [%], A549-ACE2 [8]
Settings	0.3 µM	0.833333 µM	3.33333 µM	6.66667 µM	10 µM	30 µM
24 h	2.81	-0.65	-1.26	-0.07	3.53	16.6
48 h	3.95	-1.52	-4.45	-3.51	-4.77	–
72 h	5.19	-2.08	-1.89	-4.08	-4.93	–

Settings	drug sensitivity score	relative viability EC50 [µM]
Caco-2 [12]	0	–
Caco-2 [17]	–	> 10
Calu-3 [10]	–	> 10
Calu-3 [13]	1.4	–
HepG2 [14]	3.4	–
HepG2 [18]	–	3.6
U2OS [11]	–	> 10
U2OS [15]	0.1	–
Vero E6 [16]	2.3	–

CNCCCCOc1ccccc1Cc1ccccc1 [bifemelane]
Settings	SARS-CoV-2 infection rate [%]	cell count [%]	cell viability [%]	morphology score	phospholipidosis EC50 [µM]
A549-ACE2 [19], 24 h	–	–	–	–	5.4
A549-ACE2 [19], 48 h	–	–	–	–	5.1
A549-ACE2 [19], 72 h	–	–	–	–	6.67
Caco-2 [2], 1 nM	–	–	100	–	–
Caco-2 [2], 10 nM	–	–	101	–	–
Caco-2 [2], 100 nM	–	–	91.5	–	–
Caco-2 [2], 1000 nM	–	–	102	–	–
Caco-2 [2], 10000 nM	–	–	89.3	–	–
Calu-3 [3], 1 nM	–	–	112	–	–
Calu-3 [3], 10 nM	–	–	104	–	–
Calu-3 [3], 100 nM	–	–	95.8	–	–
Calu-3 [3], 1000 nM	–	–	90.1	–	–
Calu-3 [3], 10000 nM	–	–	104	–	–
HepG2 [4], 1 nM	–	–	98.7	–	–
HepG2 [4], 10 nM	–	–	101	–	–
HepG2 [4], 100 nM	–	–	89.5	–	–
HepG2 [4], 1000 nM	–	–	92.7	–	–
HepG2 [4], 10000 nM	–	–	85	–	–
U2OS [5], 1 nM	–	–	96.6	–	–
U2OS [5], 10 nM	–	–	91.1	–	–
U2OS [5], 100 nM	–	–	102	–	–
U2OS [5], 1000 nM	–	–	96.5	–	–
U2OS [5], 10000 nM	–	–	92.6	–	–
Vero E6 [6], 1 nM	–	–	109	–	–
Vero E6 [6], 10 nM	–	–	102	–	–
Vero E6 [6], 100 nM	–	–	96.8	–	–
Vero E6 [6], 1000 nM	–	–	100	–	–
Vero E6 [6], 10000 nM	–	–	89.5	–	–
[1], 0.3 µM	–	100	–	–	–
[1], 3 µM	–	106	–	–	–
[1], 10 µM	–	115	–	–	–
[1], 30 µM	–	110	–	–	–
[7], 0.3 µM	101	–	–	–	–
[7], 3 µM	96	–	–	–	–
[7], 10 µM	43	–	–	–	–
[7], 30 µM	16	–	–	–	–
[9], 0.3 µM	–	–	–	-0.03	–
[9], 3 µM	–	–	–	0.43	–
[9], 10 µM	–	–	–	0.7	–
[9], 30 µM	–	–	–	0.69	–

drug-induced phospholipidosis [%], A549-ACE2 [8]
Settings	0.3 µM	0.833333 µM	3.33333 µM	6.66667 µM	10 µM	30 µM
24 h	0.28	1.11	22.9	61.8	79.9	96.4
48 h	-0.08	-3.86	22.6	74.8	87.4	108
72 h	3.27	-0.257	16.8	61.6	86.2	116

Settings	drug sensitivity score	relative viability EC50 [µM]
Caco-2 [12]	0	–
Caco-2 [17]	–	> 10
Calu-3 [10]	–	> 10
Calu-3 [13]	0	–
HepG2 [14]	0.6	–
HepG2 [18]	–	> 10
U2OS [11]	–	> 10
U2OS [15]	0	–
Vero E6 [16]	0	–
Vero E6 [20]	–	> 10

CC/C(=C(/c1ccc(OCCN(C)C)cc1)c1cccc(O)c1)c1ccccc1 [droloxifene]
Settings	SARS-CoV-2 infection rate [%]	cell count [%]	cell viability [%]	morphology score	phospholipidosis EC50 [µM]
A549-ACE2 [19], 24 h	–	–	–	–	1.57
A549-ACE2 [19], 48 h	–	–	–	–	3.25
A549-ACE2 [19], 72 h	–	–	–	–	3.45
Caco-2 [2], 1 nM	–	–	100	–	–
Caco-2 [2], 10 nM	–	–	97.1	–	–
Caco-2 [2], 100 nM	–	–	92.5	–	–
Caco-2 [2], 1000 nM	–	–	97.4	–	–
Caco-2 [2], 10000 nM	–	–	43.8	–	–
Calu-3 [3], 1 nM	–	–	100	–	–
Calu-3 [3], 10 nM	–	–	96.2	–	–
Calu-3 [3], 100 nM	–	–	98.7	–	–
Calu-3 [3], 1000 nM	–	–	87.1	–	–
Calu-3 [3], 10000 nM	–	–	11	–	–
HepG2 [4], 1 nM	–	–	87.1	–	–
HepG2 [4], 10 nM	–	–	101	–	–
HepG2 [4], 100 nM	–	–	96.9	–	–
HepG2 [4], 1000 nM	–	–	109	–	–
HepG2 [4], 10000 nM	–	–	48.8	–	–
U2OS [5], 1 nM	–	–	97.7	–	–
U2OS [5], 10 nM	–	–	91.5	–	–
U2OS [5], 100 nM	–	–	102	–	–
U2OS [5], 1000 nM	–	–	96	–	–
U2OS [5], 10000 nM	–	–	75.5	–	–
Vero E6 [6], 1 nM	–	–	95.8	–	–
Vero E6 [6], 10 nM	–	–	99.1	–	–
Vero E6 [6], 100 nM	–	–	93.7	–	–
Vero E6 [6], 1000 nM	–	–	95.8	–	–
Vero E6 [6], 10000 nM	–	–	92.6	–	–
[1], 0.3 µM	–	102	–	–	–
[1], 3 µM	–	113	–	–	–
[1], 10 µM	–	110	–	–	–
[1], 30 µM	–	102	–	–	–
[7], 0.3 µM	93	–	–	–	–
[7], 3 µM	64	–	–	–	–
[7], 10 µM	13	–	–	–	–
[7], 30 µM	39	–	–	–	–
[9], 0.3 µM	–	–	–	0.24	–
[9], 3 µM	–	–	–	0.61	–
[9], 10 µM	–	–	–	0.81	–
[9], 30 µM	–	–	–	0.15	–

drug-induced phospholipidosis [%], A549-ACE2 [8]
Settings	0.3 µM	0.833333 µM	3.33333 µM	6.66667 µM	10 µM	30 µM
24 h	2.02	14.1	52.7	74.9	75.2	51.7
48 h	8.07	8.41	50.9	81.7	87.7	–
72 h	3.83	3.63	41.9	82	85.5	–

Settings	drug sensitivity score	relative viability EC50 [µM]
Caco-2 [12]	3.4	–
Caco-2 [17]	–	2.8
Calu-3 [10]	–	2.02
Calu-3 [13]	7.1	–
HepG2 [14]	2.2	–
HepG2 [18]	–	3.84
U2OS [11]	–	> 10
U2OS [15]	1.5	–
Vero E6 [16]	0	–
Vero E6 [20]	–	> 10

NS(=O)(=O)C#Cc1ccccc1 [pifithrin-mu]
Settings	SARS-CoV-2 infection rate, [7] [%]	cell count, [1] [%]	cell viability, Caco-2 [2] [%]	cell viability, Calu-3 [3] [%]	cell viability, HepG2 [4] [%]	cell viability, U2OS [5] [%]	cell viability, Vero E6 [6] [%]	morphology score, [9]
1 nM	–	–	97.2	107	104	99.8	100	–
10 nM	–	–	100	99	89.3	97.5	95.5	–
0.1 µM	104	98	–	–	–	–	–	-0.1
100 nM	–	–	102	98.4	91.1	97.2	94.4	–
0.3 µM	106	98	–	–	–	–	–	-0.19
1 µM	90	101	–	–	–	–	–	0.29
1000 nM	–	–	92.4	111	104	95.7	98.4	–
3 µM	101	99	–	–	–	–	–	-0.06
10000 nM	–	–	37.8	89.7	54.3	20	77.9	–

drug-induced phospholipidosis [%], A549-ACE2 [8]
Settings	0.3 µM	0.833333 µM	3.33333 µM	6.66667 µM	10 µM	30 µM
24 h	2.1	0.49	1.97	5.31	12.1	-1.3
48 h	2.3	-0.12	0.23	3.31	7.4	–
72 h	3.99	-0.0686	0.345	0.553	1.82	–

Settings	drug sensitivity score	relative viability EC50 [µM]
Caco-2 [12]	4.7	–
Caco-2 [17]	–	2.17
Calu-3 [10]	–	> 10
Calu-3 [13]	0	–
HepG2 [14]	2	–
U2OS [11]	–	2.75
U2OS [15]	5	–
Vero E6 [16]	1	–
Vero E6 [20]	–	> 10
